row,melting point [°C],SMILES
1,181 to 183,CCn1ncc2c3c(NCc4ccc(OC)c(Cl)c4)nnc(-n4cnc(C(=O)NC)c4)c3cnc21
2,67 to 69,Clc1ccc(Cc2cccnn2)c(Cl)c1
3,> 245,CN1CCN(Cc2ccc(-c3cc4c(Nc5ccc6[nH]ccc6c5)c(C#N)cnc4s3)nc2)CC1
4,87 to 90,CS(=O)(=O)c1ccc(-c2cnn(Cc3ccccc3C(F)(F)F)c(=O)c2-c2ccc(F)cc2)cc1
5,213 to 215,COc1cc2c(Nc3ccc4cn[nH]c4c3)c(C#N)cnc2cc1OCCN1CCSCC1
6,96 to 98,O=S(=O)(NCCc1ccc(CCl)cc1)c1ccc(Cl)cc1
7,137 to 138,COc1ccc(C2(C#Cc3nccn3C)CCC(=O)CC2)cc1OC1CCCC1
8,82 to 83,COc1ccc(C(C)N(C)CCCOc2ccc(S(=O)(=O)c3c(C(C)C)cn4ccccc34)cc2)cc1OC (centres undefined)
9,94 to 96,Cc1c2c(c3ccccc3c1O)OCC2c1ccc(C(C)C)cc1 (centres undefined)
10,221 to 222,CSc1nc(P(=O)(c2ccccc2)c2ccccc2)cc(P(=O)(c2ccccc2)c2ccccc2)n1
11,148,N#Cc1cccc(-c2cnco2)n1
12,144 to 145,Cc1ccc(OCC(=O)c2ccc3c(c2)C(C)(C)CCC3(C)C)cc1O
13,171 to 172,CSc1ncnc(SC)c1NC(=O)CN1CCN(CCSc2nc3ccccc3o2)CC1
14,129 to 130,CC(C)Cn1c(CN)c(-c2ccccc2)c2cc(Br)ccc2c1=O
15,195 to 197,CCc1cc(Nc2ccc(C(Cc3ccccc3)C(=O)O)cc2)n2nccc2n1 (centres undefined)
16,47 to 53,COc1ccc(OC(CCCN(C)C2C3CCC2CNC3)c2ccc(C#N)cc2)cc1OC (centres undefined)
17,236 to 238,NS(=O)(=O)c1ccc(-c2cnn(Cc3cc(F)c(F)cc3F)c(=O)c2-c2ccc(F)cc2)cc1
18,128 to 129,Clc1ccc(-n2ncc3c2-c2ccccc2C3)cc1
19,83,CN1CCc2c(Br)sc(Br)c2C(c2ccccc2)C1 (centres undefined)
20,114 to 119,CC(Nc1ccc(F)c(F)c1F)C(=O)O (centres undefined)
21,180 to 182,Cc1cncc2cc(S(N)(=O)=O)oc12
22,233 to 235,O=C(O)c1cccc(C(=O)C=Cc2ccc(OCc3ccc4ccccc4n3)cc2)c1O
23,144 to 146,CCOc1cc2oc(=O)c3c(c2cc1OCC)CCN(CCN1CCCCC1)C3
24,172,Nc1c(SC(F)(F)F)nc(Cl)n1-c1c(Cl)cc(C(F)(F)F)cc1Cl

row,melting point [°C],SMILES
1,86.5 to 87.5,CCCCC/C(=C\C=C\C(=O)O)c1ccc(OC)cc1
2,79 to 80,CN(Cc1ccco1)Cn1cc(C#N)c(-c2cccc(Cl)c2Cl)c1
3,157 to 160,O=C1C(CCO)Oc2cc([N+](=O)[O-])ccc2N1Cc1cccc([N+](=O)[O-])c1 (centres undefined)
4,108 to 109,Brc1cncc(OCc2ccc3ccccc3c2)c1
5,207,COC(=O)c1cn(-c2ncnc3c2ccn3C)c2ncccc12
6,204 to 206,O=C1c2ccncc2C(=O)c2c(Cl)ccc(F)c21
7,173 to 176,CC(C)COC(=O)Nc1cccc(Cn2ccc3cc(C(=O)O)ccc32)c1
8,135 to 139,CCCc1c(OCc2ccccc2C(=O)NCCCCc2cccnc2)ccc(C(C)=O)c1O
9,90 to 91,CCCCC(C(N)=O)n1ccnc1 (centres undefined)
10,192 to 193,N#CCC1OC(n2cnc3c(NN4CCCCC4)nc(Cl)nc32)C(O)C1O (centres undefined)
11,284 to 285,CS(=O)(=O)Nc1ccc(CCc2n[nH]c3c2c(=O)n(-c2ccccc2)c2ncccc32)cc1
12,152 to 154,Cc1ccc(N=c2scc(-c3ccc(Cl)c(S(=O)(=O)N(C)C)c3)n2C)c(C)c1
13,104,COc1ccc(C2CC(=O)N(c3ccccc3)C2)cc1OC (centres undefined)
14,193 to 194,CC(C)Cc1ccc2c(c1)C(=O)N(c1ccc3c(ccn3C)c1)C2
15,197 to 200,O=C(O)c1ccc(C(=O)NOCCC23CC4CC(CC(C4)C2)C3)cc1
16,207 to 208,Cc1cc(-c2c(-c3ccc(S(C)(=O)=O)cc3)cnn(-c3ccc(F)c(Cl)c3)c2=O)ccc1F
17,166 to 171,CCOc1ccccc1Sc1ccc(/C=C/C(=O)N2CCCC(C(=O)O)C2)cc1Cl (centres undefined)
18,94 to 96,NC1(C(=O)NOCc2ccccc2)CCCC1
19,90 to 92,COC(=O)CCSc1ccc(C=C(C)c2ccc3c(c2)C(C)(C)CCC3(C)C)cc1
20,208 to 210,O=C(Nc1cccc(Cl)c1C(=O)O)c1ccccc1
21,256 to 258,CCNCC1CCN(c2c(F)cc3c(=O)c(C(=O)O)cn(C4CC4)c3c2F)C1 (centres undefined)
22,67,CC(C)(C)OC(=O)CC(C#N)c1ccc(Cl)c(Cl)c1 (centres undefined)
23,130 to 131,COC(=O)[C@@]12CO[C@@H](C(C)(C)C)N1C(=O)[C@@H](Cc1ccccc1)C2

# Continued, molecule first:
row,SMILES,melting point [°C]
1,O=C(O)c1cccc2c1NCCC2C(=O)O (centres undefined),215 to 216
2,CC(=O)O[C@@]12C[C@@H](OC1=O)C(=O)[C@H](O[Si](C)(C)C(C)(C)C)C2,134 to 137
3,NC(=O)c1ccc(OCc2ccccc2)cc1CCN1CCNCC1,116 to 118
4,Nc1nc(Cn2c(-c3ccc(Oc4cncnc4)cc3)ccc2-c2ccccc2Cl)ccc1NCCO,78 to 82
5,CCCS(=O)(=O)ON=C(Cl)c1ccc(C)cc1,57.5 to 60.5
6,N#Cc1ccc2c(c1)Sc1ccccc1CC2,145 to 147
7,CC(=O)Nc1nc(C)c(S(=O)(=O)N(CCO)CCO)s1,204
8,O=C(C(=O)c1ccc(Oc2ccc(Br)cc2)cc1)c1ccccc1,85 to 86
9,O=C(O)C1Cc2ccccc2N1C(=O)CCSSCCC(=O)N1c2ccccc2CC1C(=O)O (centres undefined),213 to 216
10,CCOC(=O)c1ccc(/C=C(\C)c2ccc3c(c2)CCC(C)(C)CS3)cc1,96 to 97
11,CCOP(=O)(OCC)N1CCN(c2cc3c(cc2F)c(=O)c(C(=O)OCCOC)cn3C2CC2)CC1,138 to 141
12,Cc1cc(Br)ccc1C1(CBr)OCCO1,86
13,CNC(=O)c1c(-c2ccccc2)noc1C=C(N)c1ccccc1,181 to 183
14,COc1ccc2cc(CNC(=O)c3oc4ccccc4c3C)ccc2c1Br,154 to 156
15,COc1cc(OC)c2c(=O)[nH]c(-c3cccc(N4CCN(CCO)CC4)n3)nc2c1,175 to 177
16,O=C1C=CC(=Nc2ccccc2C(=O)N2CCCCC2)C=C1,74 to 76
17,Cn1c(Sc2ccc(C(=O)O)c(Cl)c2)n[nH]c1=O,236
18,O=C(O)c1c(C(O)=S)cc([N+](=O)[O-])cc1-c1ccccc1,182 to 184
19,CC(=O)OCc1c(Br)cccc1N1CCc2c(sc3c2CC(C)(C)C3)C1=O,126 to 128
20,COc1ccc(-c2cc(C=CC(=O)O)cs2)cc1C(C)(C)C,197 to 198
21,CCCS(=O)(=O)c1sc(C(N)=O)c2c1-c1c(cnn1CC(F)(F)F)CC2,141 to 142
22,CCCn1nc(-c2ccc(O)c(F)c2)c2cccc(Cl)c21,134 to 135
23,O=C(CCl)Nc1cccc2c1C(=O)c1c(NC(=O)CCl)cccc1C2=O,280 to 281
24,COc1ccc(-c2cnn3cnnc3n2)cc1,282 to 284
25,CCCn1ncc2c(=O)[nH]c(-c3cc(S(=O)(=O)Cl)ccc3OCC)nc21,177 to 180
26,COc1ccccc1-c1nn(C(C)(C)C(=O)N(C)C)cc1C,146 to 148

row,SMILES,melting point [°C]
1,CN1CCN(c2cc(Cl)cc3c2c(=O)n(Cc2ccc(O)cc2)c(=O)n3Cc2ccccc2)CC1,138 to 140
2,COc1ccc(-c2c[nH]c3c(OC)ccc(OC)c3c2=O)cc1,124 to 125
3,CCCN(CCC12CC3CC(CC(C3)C1)C2)C(=O)NCCCc1ccncc1,99 to 103
4,Cc1cc(-c2nn(CC(C)C)c(=O)c(O)c2C)ccc1F,107 to 110
5,CC(C)(C)OC(=O)N1CCC(C(=O)c2nc3ccccc3s2)CC1,94 to 95
6,CSc1nn2c(Cl)cc(C)nc2c1S(=O)(=O)c1ccc(C)cc1,197 to 198
7,C=CCC(C#N)(C#N)Cc1ccc([N+](=O)[O-])cc1,94.2
8,CC(C)CC(CO)NC(=O)OCC1c2ccccc2-c2ccccc21 (centres undefined),131 to 133
9,CCOc1cc2c(Nc3ccc(Sc4nccn4C)c(Cl)c3)c(C#N)cnc2cc1F,251 to 254
10,CC(C)COC(=O)Oc1ccc2c(c1)OCN(CCO[N+](=O)[O-])C2=O,82 to 84
11,Cc1cc(Br)cc2c(C(C)C)c[nH]c12,170
12,O=C(NCCc1ccccn1)c1ccc2cc(C(=O)N3CC(CCl)c4ccc([N+](=O)[O-])cc43)[nH]c2c1 (centres undefined),204 to 207
13,CNC(=O)ON=C1SCCN(C(=O)NC)C1=O,187 to 189
14,"O=C(NC(CS)Cc1ccccc1)N1CCCCCC1 (single isomer, unassigned; (+))",102
15,CSc1nn2c(N3CCOCC3)cc(C)nc2c1S(=O)(=O)c1ccccc1,206 to 208
16,COc1ccc(COc2cc(Sc3c(Cl)cc(C=O)cc3Cl)ccc2OC)cn1,102 to 104
17,CN(C)C=Nc1nc(=O)n(S(=O)(=O)c2ccccc2)cc1F,203 to 204
18,CCOP(=O)(COCCOn1cnc2c(N)ncnc21)OCC,74 to 76
19,N#Cc1ccc(N2CCN(Cc3ccccc3)CC2)cc1,104 to 105
20,CCCCCCNc1ccc(Oc2ccc3nc(COc4ccc(CC5SC(=O)NC5=O)cc4)n(C)c3c2)cc1 (centres undefined),177 to 179
21,Cc1cccc(C)c1-c1nc2ccccc2n2cncc12,115 to 125
22,COc1cc(CO)ccc1OCc1cn(-c2ccccn2)nc1C,135 to 136
23,O=C(CN1CC2C(=O)N(c3cc(Cl)cc(Cl)c3)C(=O)C2C1)c1ccc(Br)cc1 (centres undefined),150
24,COc1ccc2c(c1)C13CCCCC1(CC2)CCN3C (centres undefined),100 to 102
25,O=C(O)c1nc2n(c(=O)c1OCc1ccccc1)CCOC2,171
26,ON=C1CCN(C2c3ccccc3COc3ccc(Br)cc32)CC1 (centres undefined),223 to 225

# From a melting point compilation (Tetko et al.; mined from patent text by program, amines drawn as free bases though some values may be those of a salt)
